Results: US10881110B2, “Herbicidal compositions comprising isoxazolo[5,4-b]pyridines” (BASF SE, priority 2014, dated 2021)

What was measured:
Experiment in all cases: greenhouse post-emergence herbicidal test
[1] = tested on: ALOMY; format: in vivo, Alopecurus myosuroides; design: key to herbicidal activity against ALOMY found: rating on a scale from 0 to 100; conditions: post emergence; application rate a.i.: I.1 250 g/ha, B.193 15 g/ha, alone or as mixture (composition 1.193)
Procedure, shortened: (§1)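 Seeds sown per species in loamy sand with roughly 4.6% humus; seedlings raised to 1 to 15 cm, then treated with water-borne spray of a 10% by weight emulsion concentrate. Response assessed on day 20 from 0 (normal growth) to 100 (destroyed).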

[2] = tested on: DIGSA; format: in vivo, Digitaria sanguinalis
Experimental: (§2) The culture containers used were plastic pots containing medium loamy sand with approximately 4.6% of humus and 69.9% sand as substrate. The seeds of the test plants were sown separately for each species.
(§3) For the post-emergence treatment, the test plants were grown to a plant height of from 1 to 15 cm, depending on the plant habit, and only then treated with the active compounds which had been suspended or emulsified in water. To this end, the test plants were either sown directly, and grown in the same containers, or they were first grown separately as seedlings and transplanted into the test containers a few days prior to treatment.
(§4) Depending on the species, the plants were kept at 10-25° C. and 20-35° C., respectively.
(§5) The test period extended over 1 to 3 weeks. During this time, the plants were tended and their response to the individual treatments was evaluated 20 days after treatment except mentioned otherwise.
(§6) Evaluation was carried out using a scale from 0 to 100. 100 means no emergence of the plants, or complete destruction of at least the above-ground parts, and 0 means no damage or normal course of growth.
(§7) The respective stated components A and B, and, if appropriate, C, were formulated as a 10% by weight strength emulsion concentrate and, with addition of the amount of solvent system, introduced into the spray liquor used for applying the active compound. In the examples, the solvent used was water.
(§8) In the examples below, using the method of S. R. Colby (1967) “Calculating synergistic and antagonistic responses of herbicide combinations”, Weeds 15, p. 22 ff., the value E, which is expected if the activity of the individual active compounds is only additive, was calculated. E=X+Y−(X·Y/100)

[3] = tested on: ECHCG; format: in vivo, Echinochloa crus-galli; design: key to herbicidal activity against ECHCG found / herbicidal activity against ECHCH found: scale 0 to 100; conditions: post emergence; application rate a.i.: I.1 250 g/ha, B.193 15 g/ha, alone or as mixture (composition 1.193)
Procedure, shortened: as §1

[4] = tested on: GERDI; format: in vivo, Geranium dissectum; design: key to herbicidal activity against GERDI found: rating on a scale from 0 to 100; conditions: post emergence; application rate a.i.: I.1 250 g/ha, B.193 15 g/ha, alone or as mixture (composition 1.193)
Procedure, shortened: as §1

[5] = tested on: CONAR; format: in vivo, Convolvulus arvensis; design: key: rating on a scale from 0 to 100
Experimental: as §2, §3, §4, §5, §6, §7, §8

[6] = tested on: GALAP; format: in vivo, Galium aparine; design: key to herbicidal activity against GALAP found: rating on a scale from 0 to 100; conditions: post emergence, 20 days after treatment
Procedure, shortened: (§9)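 Herbicidal activity scored on a 0 (no damage) to 100 (plants destroyed) scale, usually 20 days after water-based spraying of 1–15 cm plants grown in loamy sand at 10-25 °C or 20-35 °C depending on species. Components were applied from 10% emulsion concentrates; Colby's E=X+Y−(X·Y/100) gives the additive expectation.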

[7] = tested on: LOLMU; format: in vivo, Lolium multiflorum; conditions: a.i. g/ha: I.1 62.5, B.77 75, 20 days after treatment
Experimental: as §2, §3, §4, §5, §6, §7, §8

[8] = tested on: CHEAL; format: in vivo, Chenopodium album
Experimental: as §2, §3, §4, §5, §6, §7, §8

[9] = tested on: ERICA; format: in vivo, Conyza canadensis; design: key to herbicidal activity against ERICA found: rating on a scale from 0 to 100; conditions: post emergence; for herbicidal activity against ERICA found: 20 days after treatment
Procedure, shortened: as §1

[10] = tested on: IPOHE; format: in vivo, Ipomoea hederacea; conditions: Ipomoea hederacea, post-emergence, 480 h, post emergence; 9.375 g/ha a.i.; read-out: herbicidal activity against IPOHE found
Procedure, shortened: as §9

[11] = tested on: MATCH; format: in vivo, Matricaria recutita; design: key to herbicidal activity against MATCH found: rating on a scale from 0 to 100; conditions: post emergence
Procedure, shortened: as §1

[12] = tested on: SASKR; format: in vivo, Salsola kali; design: key: scale 0 to 100; conditions: 9.375 g/ha a.i.
Experimental: as §2, §3, §4, §5, §6, §7, §8

[13] = tested on: ABUTH; format: in vivo, Abutilon theophrast; design: key to herbicidal activity against ABUTH found: rating on a scale from 0 to 100; conditions: post emergence; a.i. g/ha: I.1 62.5, B.69 25; 20 days after treatment
Procedure, shortened: as §1

[14] = a.i. g/ha: I.1 62.5, B.80 250, 20 days after treatment
[15] = a.i. g/ha: I.1 31.25, B.69 25, 20 days after treatment
[16] = a.i. g/ha: I.1 62.5, B.69 25, 20 days after treatment

Cc1ccccc1CO[C@H]1C[C@]2(C(C)C)CC[C@@]1(C)O2 (racemic) [B.193] was tested. Which “herbicidal activity against ALOMY found” value [1] did it give?
The value was 0.

And the “herbicidal activity against DIGSA found” value ([2]; application rate a.i.: I.1 250 g/ha, B.193 15 g/ha, alone or as mixture (composition 1.193))?
Its value is 20.

And the “herbicidal activity against ECHCG found” value [3]?
The value was 40.

What about the “herbicidal activity against GERDI found” value [4] of the same compound?
Its value is 40.

What does the source list for CON(C)C(=O)Nc1ccc(Cl)c(Cl)c1 [B.77, linuron]?
herbicidal activity against CONAR found ([5]; a.i. g/ha: I.1 62.5, B.77 75, 20 days after treatment): 50%; herbicidal activity against GALAP found ([6]; a.i. g/ha: I.1 62.5, B.77 75): 40%; herbicidal activity against LOLMU found [7]: 35%

Which results are given for CCNc1nc(Cl)nc(NC(C)(C)C)n1 [B.82, terbuthylazine]?
herbicidal activity against CHEAL found ([8]; a.i. g/ha: I.1 62.5, B.82 31.25, 20 days after treatment): 65%; herbicidal activity against GALAP found ([6]; a.i. g/ha: I.1 62.5, B.82 31.25): 55%

What does the source list for CS(=O)(=O)c1ccc(C(=O)C2C(=O)CCCC2=O)c(Cl)c1COCC(F)(F)F [B.106, tembotrione]?
pest or weed control at 9.375 g/ha ([9]; Erigeron canadensis, post-emergence, 480 h, 9.375 g/ha a.i., read-out: herbicidal activity against ERICA found): 90%; pest or weed control at 9.375 g/ha [10]: 70%; pest or weed control at 9.375 g/ha ([11]; Matricaria chamomilla, post-emergence, 480 h, 9.375 g/ha a.i., read-out: herbicidal activity against MATCH found): 65%; herbicidal activity against SASKR found [12]: 65

CCC(=O)Nc1ccc(Cl)c(Cl)c1 [B.80, propanil] was tested. Which “herbicidal activity against CONAR found” value [5, 14] did it give?
The value was 20%.

What about the “herbicidal activity against DIGSA found” value [2, 14] of the same compound?
Its value is 40%.

What about the “herbicidal activity against ERICA found” value ([9]; a.i. g/ha: I.1 62.5, B.80 250) of the same compound?
The value was 65%.

N#Cc1cc(Br)c(O)c(Br)c1 [B.69, bromoxynil] was tested. Which “herbicidal activity against ABUTH found” value [13] did it give?
The value was 35%.

And the “herbicidal activity against CHEAL found” value [8, 15]?
The value was 60%.

And the “herbicidal activity against CHEAL found” value [8, 16]?
The value was 60%.

And the “herbicidal activity against CONAR found” value [5, 15]?
The value was 50%.

And the “herbicidal activity against CONAR found” value [5, 16]?
Its value is 50%.

What about the “herbicidal activity against ERICA found” value ([9]; a.i. g/ha: I.1 62.5, B.69 25) of the same compound?
Its value is 30%.

And the “herbicidal activity against GALAP found” value ([6]; a.i. g/ha: I.1 62.5, B.69 25)?
Its value is 50%.

What about the “herbicidal activity against MATCH found” value [11, 15] of the same compound?
Its value is 0%.
